Measurements as given in publication PMC10016340 (Chemical Science, 2023).
Read-outs that look alike come from different tables or passages of the source.

Key:
[1] = biological target: T1, αSO (α-synuclein oligomers) (Homo sapiens, UniProt P37840); assay: Membrane permeabilization; type: biochemical; details: for Response in dose-response calcein assay: even at 20 μM
α-syn = α-syn (Homo sapiens, UniProt P37840); assay: ThT aggregation kinetics of α-syn; type: biochemical; details: for Effect on α-syn fibril formation (ThT, words): 300 rpm, 37 °C
αSO = αSO (Homo sapiens, UniProt P37840); assay: biochemical; type: binding; details: for αSO binding signal in sandwich ELISA vs positive control: 2 mM compound, 1 μg mL^−1 αSOs
αSOs-Alexa488 [2] = biological target: T2, αSOs-Alexa488 (Homo sapiens, UniProt P37840); assay: FIDA binding of αSOs to neuronal proteins in solution
[3] = biological target: αSOs-Alexa488 binding to DOPG liposomes (Homo sapiens, UniProt P37840); assay: FIDA αSO-vesicle binding inhibition assay; details: 5 μM compound, 50 μM DOPG; αSO-vesicle complex without compound ∼60 nm
[4] = Ultracentrifugation for compound-vesicle binding; details: 100 μM compound, 1 mM DOPG vesicles, 30 min, ultracentrifugation 1 h 40 000 rpm
[5] = biological target: T1, αSO (α-synuclein oligomers); details: cited from earlier work
αSOs-Alexa488 [6] = biological target: T2, αSOs-Alexa488; assay: FIDA effect of lead compounds on free αSOs; type: binding; details: 150 nM αSO, 5 μM compound; 13% without compound
[7] = tested on: human neuroblastoma cells; details: by inhibiting interactions with lipid membranes; cited from earlier work

Compound: C=C1c2cccc(O)c2C(=O)C2=C(O)[C@]3(O)C(=O)C(C(N)=O)=C(O)[C@@H](N(C)C)[C@@H]3[C@@H](O)[C@H]12 [A5, Metacycline]
- Response in dose-response calcein assay [1]: failed to show any response
- Effect on α-syn fibril formation (ThT, words) (α-syn; 20 μM α-syn, 20 μM compound): completely inhibited fibril formation
- αSO binding signal in sandwich ELISA vs positive control (αSO): slightly higher absorption than the positive control

Compound: Cofilin-1 [Cfl1]
- Effect of protein ligand on α-syn aggregation (ThT, words) (α-syn; 20 μM α-syn monomer, 1 μM ligand): dramatic reduction in aggregation
- Change in Rh of αSOs-Alexa488 on titration with ligand (αSOs-Alexa488 [2]; up to 150 μM ligand, in solution): little change in Rh

Compound: [H]/N=C(\N/C(=N/[H])NCCCCCCNC(=N)NC(=N)Nc1ccc(Cl)cc1)Nc1ccc(Cl)cc1 [A1, Chlorhexidine]
- Apparent size (Rh) of αSOs-Alexa488 in the presence of DOPG liposomes and compound [3]: ~10 nm
- Percentage of compound bound to DOPG vesicles (pelleted) [4]: 60–95%
- Decrease of half-time of fibrillation compared to α-syn alone (α-syn; 20 μM α-syn, 20 μM compound): ~2 fold
- Kd (αSO): 130 ± 40 µM
- αSO binding signal in sandwich ELISA vs positive control (αSO): decrease in binding

Compound: CC(C)=CC[C@@H](O)C1=CC(=O)c2c(O)ccc(O)c2C1=O [A7, Shikonin]
- Response in dose-response calcein assay [1]: failed to show any response
- αSO binding signal in sandwich ELISA vs positive control (αSO): slightly higher absorption than the positive control

Compound: N.N.[Cl][Pt][Cl] [A8, Cisplatin]
- Percentage of compound bound to DOPG vesicles (pelleted) [4]: 0–2%

Compound: N.N.O=C([O-])C1(C(=O)[O-])CCC1.[Pt+2] [A9, Carboplatin]
- Response in dose-response calcein assay [1]: failed to show any response

Compound: C/C=C1/[C@H](O[C@@H]2O[C@H](CO)[C@@H](O)[C@H](O)[C@H]2O)OC=C(C(=O)OC)[C@H]1CC(=O)OCCc1ccc(O)c(O)c1 [oleuropein]
- Inhibition of calcein release ([5]; negative control): weak or no inhibitory effect

Compound: COc1ccccc1CNCCCCCCNCCCCCCCCNCCCCCCNCc1ccccc1OC [A6, Methoctramine]
- IC50 [1]: 0.32 µM
- Apparent size (Rh) of αSOs-Alexa488 in the presence of DOPG liposomes and compound [3]: ~10 nm
- Percentage of compound bound to DOPG vesicles (pelleted) [4]: 60–95%
- Effect on lag phase of α-syn aggregation (α-syn; 20 μM α-syn, 20 μM compound): modestly increased the lag phase
- αSO binding signal in sandwich ELISA vs positive control (αSO): to a smaller extent

Compound: O=C(O[C@@H]1Cc2c(O)cc(O)cc2O[C@@H]1c1cc(O)c(O)c(O)c1)c1cc(O)c(O)c(O)c1 [EGCG]
- Apparent size (Rh) of αSOs-Alexa488 in the presence of DOPG liposomes and compound [3]: 50 nm
- Percentage of α-syn monomers in αSO sample (αSOs-Alexa488 [6]): 22%
- Percentage of compound bound to DOPG vesicles (pelleted) [4]: 0–2%
- Effect on α-syn fibril formation (ThT, words) (α-syn; 20 μM α-syn, 20 μM compound): completely inhibited fibril formation
- Inhibition of calcein release ([5]; positive control): completely inhibits calcein release

Compound: Serine-tRNA ligase [SerRS]
- Reduction of half-time of α-syn fibrillation (α-syn; 20 μM α-syn, 1 μM ligand): more than 3 fold
- Rh of αSOs-Alexa488 after binding to ligand (αSOs-Alexa488 [2]; 100–150 μM ligand, αSO alone 10 nm): ~12.5 nm

Compound: CC(C)(C)CC(C)(C)c1ccc(OCCOCC[N+](C)(C)Cc2ccccc2)cc1 [A3, Benzethonium]
- Percentage of compound bound to DOPG vesicles (pelleted) [4]: 60–95%

Compound: Cc1cc(C(C)(C)CC(C)(C)C)ccc1OCCOCC[N+](C)(C)Cc1ccccc1 [A2, Methyl benzethonium]
- Apparent size (Rh) of αSOs-Alexa488 in the presence of DOPG liposomes and compound [3]: ~10 nm
- Percentage of α-syn monomers in αSO sample (αSOs-Alexa488 [6]): 23%
- Percentage of compound bound to DOPG vesicles (pelleted) [4]: 60–95%
- Decrease of half-time of fibrillation compared to α-syn alone (α-syn; 20 μM α-syn, 20 μM compound): ~2 fold
- Kd (αSO): 120 ± 90 µM
- αSO binding signal in sandwich ELISA vs positive control (αSO): decrease in binding

Compound: CC(C)[C@@H](CC[C@@H](C)[C@H]1CC[C@H]2[C@@H]3[C@H](O)C[C@H]4C[C@@H](NCCCNCCCCN)CC[C@]4(C)[C@H]3CC[C@]12C)OS(=O)(=O)O [squalamine]
- Suppression of αSO toxicity [7]: completely suppress the toxicity of αSOs
